{
  "source": "patent US20250009942A1",
  "about": "“BIODEGRADABLE PIEZOELECTRIC NANOFIBERS” (University of Connecticut, priority 2022, published 2025)",
  "conditions": "corona discharge, 20 kV",
  "source_text": "Ionized air particles around the needle were accelerated and bombard towards the sample surface, causing electric field across the substrate. […] Later, the samples (n=5 for each group) were positioned on an anti-static mat (Bertech, 1059-2X3BKT) to increase the accuracy of the measurement. The voltmeter was grounded and was held 5 mm from the sample surface.\nThe particles 130, 190 were placed on a ground plate and a high voltage (20 kV) was applied between the plate and the top positive nozzle.",
  "data": [
    {"smiles": "NCC(=O)O", "note": "[glycine particles, glycine]", "values": [
      {"measurement": "charge accumulation rate and surface charge density after poling", "result": "considerably higher than those before poling"}
    ]}
  ]
}
